Counter-ions that a name gives are not always drawn.
Target: Human plasma kallikrein (Homo sapiens (Human), UniProt P03952)
Experiment: In vitro plasma kallikrein inhibition assay (chromogenic substrate D-Pro-Phe-Arg-pNa, absorbance at 405 nm, IC50 determination)
Assay type: biochemical
Details: not given

Sequence of Human plasma kallikrein (P03952 391-638): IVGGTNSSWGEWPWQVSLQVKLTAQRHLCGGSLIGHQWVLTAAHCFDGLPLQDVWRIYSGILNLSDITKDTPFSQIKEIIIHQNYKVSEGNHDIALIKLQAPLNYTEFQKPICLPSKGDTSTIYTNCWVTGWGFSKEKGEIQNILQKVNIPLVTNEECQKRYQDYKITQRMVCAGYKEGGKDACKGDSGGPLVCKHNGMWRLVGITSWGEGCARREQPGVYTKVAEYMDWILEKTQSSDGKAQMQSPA
Sequence of Human plasma kallikrein (P03952 20-390 partner): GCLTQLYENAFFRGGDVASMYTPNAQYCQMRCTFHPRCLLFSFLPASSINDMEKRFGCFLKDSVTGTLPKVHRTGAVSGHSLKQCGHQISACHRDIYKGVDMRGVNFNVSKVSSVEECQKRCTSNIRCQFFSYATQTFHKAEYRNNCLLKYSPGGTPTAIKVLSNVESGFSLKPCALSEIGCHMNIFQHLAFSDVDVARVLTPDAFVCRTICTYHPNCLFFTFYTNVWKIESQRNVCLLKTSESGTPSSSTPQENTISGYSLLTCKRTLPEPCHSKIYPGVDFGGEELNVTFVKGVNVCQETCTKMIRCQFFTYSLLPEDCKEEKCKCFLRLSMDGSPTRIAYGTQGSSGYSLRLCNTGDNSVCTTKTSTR

Row | Compound | KLKB1 pIC50
1 | CON=C(N)c1ccc(CNC(=O)c2ccc3c(c2)[C@@H]2O[C@H]3c3ccc(-c4ccc(F)cc4F)cc32)cc1 [Example 225] | 5

Same assay, conditions: read-out: KLKB1 pIC50 (converted)

Row | Compound | IC50 [nM]
2 | Cc1c(CNC(=O)c2ccc3c(c2)C2OC3c3ccc(Cn4cccn4)cc32)c(F)cc2c1CNC2 (racemic) [Example 160, (±)-N-[(6-fluoro-4-methyl-2,3-dihydro-1H-isoindol-5-yl)methyl]-12-[(1H-pyrazol-1-yl)methyl]-15-oxatetracyclo [6.6.1.0^2,^7.0^9,1^4]-pentadeca-2,4,6,9,11,13-hexaene-4-carboxamide] | 120
3 | Cc1ccc(C(=O)c2ccc3c(c2)[C@H]2O[C@@H]3c3ccc(C(=O)NCc4c(C)cc(N)nc4C)cc32)o1 (single isomer, unassigned) [Example 279] | 22.9
4 | Cc1cc2c(cc1C)C1OC2c2ccc(C(=O)NCc3ccc(C(=N)N)cc3)cc21 (racemic) [Example 317, (±)-N-[(4-carbamimidoylphenyl)methyl]-11,12-dimethyl-15-oxatetracyclo[6.6.1.0^2,^7.0^9,1^4]-pentadeca-2,4,6,9(14),10,12-hexaene-4-carboxamide] | 28.8
5 | Nc1nccc2c(CNC(=O)c3ccc4c(c3)[C@@H]3O[C@H]4c4ccc(-c5ccccc5F)cc43)c(Cl)ccc12 (single isomer, unassigned) [Example 294] | 20.9
6 | Cc1cc(N)nc(C)c1CNC(=O)c1ccc2c(c1)[C@@H]1O[C@H]2c2ccc(-c3ccc(F)c(F)c3F)cc21 (single isomer, unassigned) [Example 138] | 24
7 | N=C(N)c1cc(F)c(CNC(=O)c2ccc3c(c2)[C@@H]2O[C@H]3c3ccc(N4CCS(=O)(=O)CC4)cc32)c(F)c1 (single isomer, unassigned) [Example 336] | 5.01
8 | CCc1cc(N)nc(C)c1CNC(=O)c1ccc2c(c1)[C@@H]1O[C@H]2c2ccc(-c3ccc(F)cc3F)cc21 (single isomer, unassigned) [Example 183] | 12
9 | CCc1cc(N)nc(CC)c1CNC(=O)c1ccc2c(c1)[C@@H]1O[C@H]2c2ccc(-c3ccc(F)cc3F)cc21 (single isomer, unassigned) [Example 248] | 2570
10 | Nc1cc(C2CC2)c(CNC(=O)c2ccc3c(c2)[C@@H]2O[C@H]3c3ccc(-c4ccc(F)cc4F)cc32)c(C2CC2)n1 (single isomer, unassigned) [Example 257] | 200000
11 | Cc1nc(N)cc(C2CC2)c1CNC(=O)c1ccc2c(c1)C1OC2c2ccc(-c3ccc(F)cc3F)cc21 (racemic) [Example 180, (±)-N-[(6-amino-4-cyclopropyl-2-methylpyridin-3-yl)methyl]-12-(2,4-difluorophenyl)-15-oxatetracyclo[6.6.1.0^2,^7.0^9,1^4] pentadeca-2,4,6,9,11,13-hexaene-4-carboxamide] | 11
12 | Cc1nc(N)cc(C2=CCOC2)c1CNC(=O)c1ccc2c(c1)[C@@H]1O[C@H]2c2ccc(-c3ccc(F)cc3F)cc21 (single isomer, unassigned) [Example 267] | 97.7
13 | Cc1ccc(-c2ccc3c(c2)C2OC3c3ccc(C(=O)NCc4c(C)cc(N)nc4C)cc32)c(F)c1F (racemic) [Example 118, (±)-N-[(6-amino-2,4-dimethylpyridin-3-yl)-methyl]-12-(2,3-difluoro-4-methylphenyl)-15-oxatetracyclo[6.6.1.0^2,^7.0^9,1^4] pentadeca-2,4,6,9,11,13-hexaene-4-carboxamide] | 64.6
14 | COC(=O)c1cc2c(cc1C(=O)OC)C1OC2c2ccc(C(=O)NCc3c(C)cc(N)nc3C)cc21 (racemic) [Example 319, (±)-4,5-dimethyl 11-{[(6-amino-2,4-dimethyl-pyridin-3-yl)methyl]carbamoyl}-15-oxatetracyclo[6.6.1.0^2,^7.0^9,1^4] pentadeca-2(7),3,5,9,11,13-hexaene-4,5-dicarboxylate] | 2450
15 | N=C(N)c1ccc(CNC(=O)c2ccc3c(c2)[C@@H]2O[C@H]3c3ccccc32)cc1 (single isomer, unassigned) [Example 238] | 324
16 | Cc1cc(N)nc(C)c1CNC(=O)c1ccc2c(c1)C1OC2c2ccc(-c3ccc(F)c(C(F)(F)F)c3)cc21 (racemic) [Example 121, (±)-N-[(6-amino-2,4-dimethylpyridin-3-yl)-methyl]-12-[4-fluoro-3-(trifluoromethyl)phenyl]-15-oxatetracyclo [6.6.1.0^2,^7.0^9,1^4]pentdeca-2,4,6,9,11,13-hexaene-4-carboxamide] | 437
17 | N=C(N)c1ccc(CNC(=O)c2ccc3c(c2)[C@@H]2O[C@H]3c3ccc(C4CC4)cc32)nc1 (single isomer, unassigned) [Example 327] | 427
18 | Nc1nccc2c(CNC(=O)c3ccc4c(c3)[C@@H]3O[C@H]4c4ccc(C(=O)c5ccccc5)cc43)cccc12 (single isomer, unassigned) [Example 226] | 36.3
19 | Cc1c(CNC(=O)c2ccc3c(c2)[C@@H]2O[C@H]3c3ccc(-c4ccccc4F)cc32)cnc(N)c1C (single isomer, unassigned) [Example 242] | 2750
20 | Nc1nccc2c(CNC(=O)c3ccc4c(c3)C3OC4c4ccc(-c5ccc(F)cc5F)cc43)cccc12 (racemic) [Example 148, (±)-N-[(1-aminoisoquinolin-5-yl)methyl]-12-(2,4-difluorophenyl)-15-oxatetracyclo [6.6.1.0^2,^7.0^9,1^4]-pentadeca-2,4,6,9,11,13-hexaene-4-carboxamide] | 85.1
21 | Cc1cc(N)nc(C)c1CNC(=O)c1ccc2c(c1)C1OC2c2ccc(Nc3ccn(C)n3)cc21 (racemic) [Example 51] | 933
22 | N=C(NC(=O)c1ccc2c(c1)[C@@H]1O[C@H]2c2ccc(-c3ccc(F)cc3F)cc21)c1ccc(N)cc1 (single isomer, unassigned) [Example 221] | 10000
23 | CCCN(c1cccc(F)c1)c1ccc2c(c1)[C@H]1O[C@@H]2c2ccc(C(=O)NCc3c(C)cc(N)nc3C)cc21 (single isomer, unassigned) [Example 250] | 33.1
24 | C=Cc1cc(N)nc(C)c1CNC(=O)c1ccc2c(c1)[C@@H]1O[C@H]2c2ccc(-c3ccc(F)cc3F)cc21 (single isomer, unassigned) [Example 219] | 17
25 | CC(C)(O)c1ccc2c(c1)[C@H]1O[C@@H]2c2ccc(C(=O)NCc3ccc(C(=N)N)cc3)cc21 (single isomer, unassigned) [Example 277] | 35.5
26 | Cc1cc(N)nc(C)c1CNC(=O)c1ccc2c(c1)[C@@H]1O[C@H]2c2cc(Oc3cccc(F)c3)ccc21 (single isomer, unassigned) [Example 184] | 75.9
27 | Cc1cc(N)nc(C)c1CNC(=O)c1ccc2c(c1)[C@@H]1O[C@H]2c2ccc(-n3c(=O)ccn3C)cc21 (single isomer, unassigned) [Example 186] | 1820
28 | Cc1cc(N)nc(C)c1CNC(=O)c1ccc2c(c1)C1OC2c2ccc(-c3ccc(F)c4c3OCO4)cc21 (racemic) [Example 108, trifluoroacetate salt] | 25.7
29 | N=C(N)c1ccc(CNC(=O)c2ccc3c(c2)[C@@H]2O[C@H]3c3ccc(N4CC(F)(F)C4)cc32)cc1 (single isomer, unassigned) [Example 307] | 1
